This is an account of results in patent US10172868B2, “Substituted quinazolines for inhibiting kinase activity” (NeuPharma, Inc., priority 2013, dated 2019).

In one assay the test system is H3255 cells. In words: Inhibition of cancer cell growth, MTT assay, H3255. As to conditions: Homo sapiens, NCI-H3255, 72 h, read-out: IC50 in H3255 cells. (In general: Tetrazolium dyes change colour on reduction, which living cells bring about.)
In another assay the test system is A431 cells. In words: cells. The following applies: Homo sapiens, A-431, 72 h, read-out: IC50 in A431 cells.
Another assay deals with EGFR (ErbB1) (Homo sapiens (Human), UniProt P00533). Nature of the assay: Z'-LYTE kinase inhibition assay, EGFR. In kind it is biochemical. As to conditions: for inhibition at 0.041 µM: read-out: % inhibition against EGFR (Compound at 0.041 μM); for IC50: read-out: IC50 against EGFR. In outline: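 Z'-LYTE FRET assay run with 1.1-5.25 ng EGFR and 2 μM peptide substrate in 50 mM HEPES pH 7.5, 10 mM MgCl2, 2 mM MnCl2, 1 mM EGTA, 1 mM DTT, 0.01% BRIJ-35, 1% DMSO. Kinase reaction 60 min at room temperature, then 60 min development; IC50 from 10-point 3-fold titrations.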
Sequence of EGFR (ErbB1) (P00533 25-1210): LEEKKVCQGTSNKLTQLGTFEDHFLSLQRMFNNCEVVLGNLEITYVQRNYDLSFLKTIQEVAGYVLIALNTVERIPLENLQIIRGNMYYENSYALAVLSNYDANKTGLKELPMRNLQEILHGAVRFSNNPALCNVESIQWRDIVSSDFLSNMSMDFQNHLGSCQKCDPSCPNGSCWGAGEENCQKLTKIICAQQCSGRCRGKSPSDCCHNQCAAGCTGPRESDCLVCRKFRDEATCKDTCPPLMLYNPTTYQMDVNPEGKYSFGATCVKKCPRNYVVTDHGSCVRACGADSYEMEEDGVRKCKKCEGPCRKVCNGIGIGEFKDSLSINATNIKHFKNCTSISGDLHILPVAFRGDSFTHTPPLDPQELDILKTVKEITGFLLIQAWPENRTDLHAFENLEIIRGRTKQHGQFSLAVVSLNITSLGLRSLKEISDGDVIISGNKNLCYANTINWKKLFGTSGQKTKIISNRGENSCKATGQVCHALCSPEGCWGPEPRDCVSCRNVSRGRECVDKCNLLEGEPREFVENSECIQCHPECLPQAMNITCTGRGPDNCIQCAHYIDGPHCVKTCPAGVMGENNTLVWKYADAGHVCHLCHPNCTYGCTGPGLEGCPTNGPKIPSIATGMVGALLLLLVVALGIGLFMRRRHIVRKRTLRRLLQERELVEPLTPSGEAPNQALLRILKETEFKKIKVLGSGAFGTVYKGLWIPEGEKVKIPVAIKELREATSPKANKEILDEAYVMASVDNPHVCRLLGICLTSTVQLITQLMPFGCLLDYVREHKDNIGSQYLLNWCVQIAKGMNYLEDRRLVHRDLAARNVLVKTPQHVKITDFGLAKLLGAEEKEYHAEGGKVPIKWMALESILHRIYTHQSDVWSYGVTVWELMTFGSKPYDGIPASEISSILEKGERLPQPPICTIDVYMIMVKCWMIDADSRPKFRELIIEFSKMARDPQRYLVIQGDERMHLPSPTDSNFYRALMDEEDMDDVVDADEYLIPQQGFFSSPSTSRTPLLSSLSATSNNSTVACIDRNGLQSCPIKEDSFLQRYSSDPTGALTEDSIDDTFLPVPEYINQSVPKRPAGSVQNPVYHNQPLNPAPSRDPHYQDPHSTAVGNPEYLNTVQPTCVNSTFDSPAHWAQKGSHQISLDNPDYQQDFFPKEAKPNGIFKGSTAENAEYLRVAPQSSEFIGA

The subject of a further assay is H1975 cells. In words: Inhibition of cancer cell growth, MTT assay, H1975. As to conditions: Homo sapiens, NCI-H1975, 72 h, read-out: IC50 in H1975 cells.
Another assay concerns HCC827 cells. In words: cells. As to conditions: Homo sapiens, HCC827, 72 h, read-out: IC50 in HCC827 cells.
In a further assay the target is EGFR (ErbB1) T790M L858R (Homo sapiens (Human), UniProt P00533, L858R/T790M). In words: Z'-LYTE kinase inhibition assay, EGFR L858R/T790M. As to conditions: for IC50: read-out: IC50 against EGFR L858R/T790M; for inhibition at 0.0137 µM: read-out: % inhibition against EGFR L858R/T790M (Compound at 0.0137 μM). It is filed as biochemical. The gist of the method:
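Z'-LYTE FRET peptide assay at 1% DMSO, 10-point 3-fold titrations; kinase/peptide mix in 50 mM HEPES pH 6.5, 0.01% BRIJ-35, 10 mM MgCl2, 1 mM EGTA, 0.02% NaN3. Kinase reaction ran 60 min at room temperature, followed by 60 min development and a fluorescence read. IC50 derived from the concentration series.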

Another assay addresses BTK (Homo sapiens (Human), UniProt Q06187). Nature of the assay: Z'-LYTE kinase inhibition assay, BTK. It is filed as biochemical. The following applies: for IC50: read-out: IC50 against BTK. As for the experimental part: Inhibitory activities of compounds against BTK, EGFR and EGFR mutants (EGFR L858R, EGFR T790M, EGFR L858R/T790M), FGFR1, FGFR2, JAK2, JAK3 and KDR were measured by Invitrogen using Z'-LYTE® Method as briefly described in the following.
Test Compounds are screened in 1% DMSO (final) in the well. For 10 point titrations, 3-fold serial dilutions are conducted from the starting concentration. All ATP Solutions are diluted to a 4× working concentration in Kinase Buffer (50 mM HEPES pH 7.5, 0.01% BRIJ-35, 10 mM MgCl2, 1 mM EGTA). Peptide/Kinase Mixtures are diluted to a 2× working concentration in the appropriate Kinase Buffers as described below.
(v) Peptide/Kinase Mixtures for Measurement of BTK:
The 2×BTK/Tyr 01 mixture is prepared in 50 mM HEPES pH 7.5. 0.01% BRIJ-35, 10 mM MgCl2, 1 mM EGTA.
The mixture is then incubated for another 60-minute at room temperature for development reaction. Finally fluorescence is read by plate reader.
To determine IC50 of a compound against EGFR, EGFR mutant and other kinases, a series of concentrations of the compound were tested for the inhibition. […] The scale utilized in Table 4 is as follows: +++ less than 100 nM, ++ 100-500 nM and + greater than 500 nM.

Sequence of EGFR (ErbB1) T790M L858R (P00533 25-1210 T790M/L858R): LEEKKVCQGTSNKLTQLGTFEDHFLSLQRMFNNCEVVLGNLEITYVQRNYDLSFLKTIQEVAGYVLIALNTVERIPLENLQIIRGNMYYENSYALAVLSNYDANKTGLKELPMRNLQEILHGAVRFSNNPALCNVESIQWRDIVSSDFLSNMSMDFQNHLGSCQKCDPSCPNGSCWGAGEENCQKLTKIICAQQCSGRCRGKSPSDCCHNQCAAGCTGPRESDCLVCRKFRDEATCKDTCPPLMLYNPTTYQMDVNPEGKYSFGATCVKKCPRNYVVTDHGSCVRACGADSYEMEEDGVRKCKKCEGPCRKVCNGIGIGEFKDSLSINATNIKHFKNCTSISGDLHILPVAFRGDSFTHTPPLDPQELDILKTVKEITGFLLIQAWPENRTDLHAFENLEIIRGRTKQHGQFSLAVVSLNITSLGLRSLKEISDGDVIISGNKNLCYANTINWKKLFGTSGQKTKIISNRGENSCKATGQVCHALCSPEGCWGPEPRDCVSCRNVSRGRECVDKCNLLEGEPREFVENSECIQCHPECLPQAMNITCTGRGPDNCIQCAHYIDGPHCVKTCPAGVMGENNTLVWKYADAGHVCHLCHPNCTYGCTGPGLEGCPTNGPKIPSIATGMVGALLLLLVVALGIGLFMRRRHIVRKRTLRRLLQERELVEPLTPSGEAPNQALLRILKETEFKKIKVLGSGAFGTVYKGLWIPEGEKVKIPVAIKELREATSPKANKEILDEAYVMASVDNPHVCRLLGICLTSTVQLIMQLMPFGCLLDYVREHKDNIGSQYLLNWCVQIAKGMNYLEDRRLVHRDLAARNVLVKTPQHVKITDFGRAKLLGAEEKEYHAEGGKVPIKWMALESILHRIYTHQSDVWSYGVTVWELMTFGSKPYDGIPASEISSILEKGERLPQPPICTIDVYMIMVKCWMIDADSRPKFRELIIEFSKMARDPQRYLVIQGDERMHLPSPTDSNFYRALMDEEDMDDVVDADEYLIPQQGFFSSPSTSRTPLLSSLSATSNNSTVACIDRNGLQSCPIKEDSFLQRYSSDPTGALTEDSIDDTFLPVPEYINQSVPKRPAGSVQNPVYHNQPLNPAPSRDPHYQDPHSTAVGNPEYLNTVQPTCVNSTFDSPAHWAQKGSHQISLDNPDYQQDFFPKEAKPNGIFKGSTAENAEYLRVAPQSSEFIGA
Sequence of BTK (Q06187 whole entry): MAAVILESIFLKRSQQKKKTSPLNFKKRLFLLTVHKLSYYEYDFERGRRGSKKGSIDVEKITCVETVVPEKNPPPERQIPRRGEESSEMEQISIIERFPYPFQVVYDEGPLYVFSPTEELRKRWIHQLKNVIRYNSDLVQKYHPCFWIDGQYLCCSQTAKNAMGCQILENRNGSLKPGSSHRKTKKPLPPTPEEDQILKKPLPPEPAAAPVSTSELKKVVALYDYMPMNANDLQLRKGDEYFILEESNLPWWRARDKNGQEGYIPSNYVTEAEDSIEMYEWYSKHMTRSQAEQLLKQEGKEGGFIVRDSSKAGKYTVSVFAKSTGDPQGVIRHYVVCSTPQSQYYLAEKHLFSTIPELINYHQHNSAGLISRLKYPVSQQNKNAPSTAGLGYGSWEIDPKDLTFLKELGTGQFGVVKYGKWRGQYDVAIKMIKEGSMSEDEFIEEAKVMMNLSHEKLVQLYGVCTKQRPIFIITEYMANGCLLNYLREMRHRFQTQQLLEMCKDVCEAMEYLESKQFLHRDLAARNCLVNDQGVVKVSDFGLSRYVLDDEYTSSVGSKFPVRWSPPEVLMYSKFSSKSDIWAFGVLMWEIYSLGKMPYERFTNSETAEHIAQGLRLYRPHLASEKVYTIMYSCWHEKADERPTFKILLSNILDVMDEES
Method for A431 cells: (§1) Taxol (as a positive control. Sigma) and compounds were dissolved in DMSO (Sigma), and the final concentration of DMSO in the medium was 1%. Tumor cells were plated in 96-well plates at densities of about 4000 cells/well of a 96-well plate and allowed to adhere/grow for 24 h. They were then treated with various concentrations of drug for 72 h, 3-(4,5-Dimethylthiazol-2-yl)-2,5-diphenyltetrazolium bromide (MTT, Sigma) was used to determine the number of viable cells at the time of compound addition and the number of cells remaining after 72 h compound exposure. The number of cells remaining after 72 h was compared to the number of viable cells at the time of compound addition by measuring the absorbance at 570 nm, allowing for the calculation of growth inhibition.
(§2) All concentrations of compounds were tested in triplicate and controls were averaged over 4 wells. IC50 was calculated by plotting the concentration of compound vs the percentage of inhibition in treated wells using GraphPad Prism 5.
(§3) The scale utilized in Tables 5 is as follows: +++ less than 100 nM; ++ between 100 nM and 500 nM; and + greater than 500 nM.
Method for H3255 cells: Inhibition of cell growth by compounds was measured using MTT assay (Mosmann, T., Journal of Immunological Methods, 1983, 65, 55-63). Tumor cell lines were purchased from ATCC (American Type Culture Collection, Manassas, Va.). All cell lines were maintained in RPMI 1640 (Hyclone) supplemented with 10% fetal bovine serum (FBS, Hyclone), glutamine (2 mM, Hyclone), and antibiotics (penicillin 100 U/mL and streptomycin 50 μg/mL) at 37° C. in a humidified atmosphere of 5% CO2 in air. Taxol (as a positive control. Sigma) and compounds were dissolved in DMSO (Sigma), and the final concentration of DMSO in the medium was 1%. Tumor cells were plated in 96-well plates at densities of about 4000 cells/well of a 96-well plate and allowed to adhere/grow for 24 h. They were then treated with various concentrations of drug for 72 h, 3-(4,5-Dimethylthiazol-2-yl)-2,5-diphenyltetrazolium bromide (MTT, Sigma) was used to determine the number of viable cells at the time of compound addition and the number of cells remaining after 72 h compound exposure. The number of cells remaining after 72 h was compared to the number of viable cells at the time of compound addition by measuring the absorbance at 570 nm, allowing for the calculation of growth inhibition.
as §2
Method for HCC827 cells: as §1, §2, §3

With `C=CC(=O)Nc1cccc(-c2cccc3cnc(Nc4ccc(N5CCN(CC)CC5)cc4)nc23)c1` [Example C029, N-(3-(2-((4-(4-ethylpiperazin-1-yl)phenyl)amino)quinazolin-8-yl)phenyl)acrylamide], the IC50 with H3255 cells is above 500 nM; in the assay with A431 cells, 100 to 500 nM; with H1975 cells, 100 to 500 nM; in the assay on HCC827 cells, below 100 nM. Moreover, the inhibition at 1 µM on EGFR (ErbB1) (read-out: % inhibition against EGFR (Compound at 1 μM)) and at EGFR (ErbB1) T790M L858R (read-out: % inhibition against EGFR L858R/T790M (Compound at 1 μM)) was above 50% each time.

Turning to `C=CC(=O)Nc1cccc(-c2cccc3cnc(Nc4ccc(OC5CCN(C)CC5F)cc4)nc23)c1` (centres unmarked) [Example C079, N-(3-(2-((4-((3-fluoro-1-methylpiperidin-4-yl)oxy)phenyl)amino)quinazolin-8-yl)phenyl)acrylamide], the IC50 was 100 to 500 nM in the assay with H3255 cells; 100 to 500 nM in the assay on A431 cells; below 100 nM on BTK; below 100 nM with H1975 cells; below 100 nM on EGFR (ErbB1) T790M L858R. For the same compound, on EGFR (ErbB1), the inhibition at 0.041 µM was below 50%.

For the compound `C=CC(=O)Nc1cccc(-c2cccc3cnc(Nc4ccc(NC5CCN(C)CC5F)cc4)nc23)c1` (centres unmarked) [Example C105, N-(3-(2-((4-((3-fluoro-1-methylpiperidin-4-yl)amino)phenyl)amino)quinazolin-8-yl)phenyl)acrylamide], the IC50 is below 100 nM in the assay on H3255 cells; 100 to 500 nM in the assay with A431 cells; below 100 nM on EGFR (ErbB1); below 100 nM on BTK; below 100 nM in the assay with H1975 cells; below 100 nM with HCC827 cells. Besides, on EGFR (ErbB1) T790M L858R, the IC50 was below 100 nM. Further, the inhibition at 0.041 µM at EGFR (ErbB1) was below 50%.

As to `C=CC(=O)Nc1cccc(-c2cccc3cnc(Nc4ccc(N5CCN(C)CC5=O)cc4)nc23)c1` [Example C106, N-(3-(2-((4-(4-methyl-2-oxopiperazin-1-yl)phenyl)amino)quinazolin-8-yl)phenyl)acrylamide], the IC50 is 100 to 500 nM in the assay with H3255 cells; below 100 nM in the assay on A431 cells; above 500 nM at EGFR (ErbB1); below 100 nM on BTK; below 100 nM in the assay on H1975 cells; below 100 nM on EGFR (ErbB1) T790M L858R.

In the case of `C=CC(=O)Nc1cccc(-c2cccc3cnc(Nc4ccc(NC5CCN(C)CC5)cc4)nc23)c1` [Example C118, N-(3-(2-((4-((1-methylpiperidin-4-yl)amino)phenyl)amino)quinazolin-8-yl)phenyl)acrylamide], the IC50 was 100 to 500 nM in the assay with H3255 cells, below 100 nM with A431 cells, below 100 nM in the assay with H1975 cells and below 100 nM at EGFR (ErbB1) T790M L858R. For the same compound, the inhibition at 0.041 µM was above 50% at EGFR (ErbB1) and above 50% at BTK (compound at 0.041 μM, read-out: % inhibition against BTK). Moreover, at EGFR (ErbB1) T790M L858R, the inhibition at 0.0137 µM is above 50%.

Consider `C=CC(=O)Nc1cccc(-c2cccc3cnc(Nc4ccc(OC5CCN(C)CC5)cc4F)nc23)c1` [Example C141, N-(3-(2-((2-fluoro-4-((1-methylpiperidin-4-yl)oxy)phenyl)amino)quinazolin-8-yl)phenyl)acrylamide], for which the IC50 in the assay with H3255 cells was 100 to 500 nM; in the assay on A431 cells, 100 to 500 nM; in the assay on H1975 cells, below 100 nM; in the assay with HCC827 cells, below 100 nM; on EGFR (ErbB1) T790M L858R, below 100 nM. Also, on EGFR (ErbB1), the inhibition at 0.041 µM was above 50%. For the same compound, at EGFR (ErbB1) T790M L858R, the inhibition at 0.0137 µM is above 50%.

For `C=CC(=O)Nc1cccc(-c2cccc3cnc(Nc4ccc(N5CCN(CC(C)(C)O)CC5)cc4)nc23)c1` [Example C145, N-(3-(2-((4-(4-(2-hydroxy-2-methylpropyl)piperazin-1-yl)phenyl)amino)quinazolin-8-yl)phenyl)acrylamide], the IC50 in the assay on H3255 cells was above 500 nM; in the assay on A431 cells, 100 to 500 nM; in the assay with H1975 cells, below 100 nM; in the assay with HCC827 cells, below 100 nM; at EGFR (ErbB1) T790M L858R, below 100 nM. The inhibition at 0.041 µM on EGFR (ErbB1) was below 50%. Further, the inhibition at 0.0137 µM at EGFR (ErbB1) T790M L858R was above 50%.
